What was measured:
Test in all cases: Reversible CYP inhibition in pooled HLMs
Type in all cases: in vitro ADME
CYP1A2 = target: T1, CYP1A2 (Homo sapiens, UniProt P05177); conditions: 30 µM compound, substrate phenacetin
T1 construct: from tissue; host or cells: pooled human liver microsomes (n = 200)
T1 sequence (P05177 1-516): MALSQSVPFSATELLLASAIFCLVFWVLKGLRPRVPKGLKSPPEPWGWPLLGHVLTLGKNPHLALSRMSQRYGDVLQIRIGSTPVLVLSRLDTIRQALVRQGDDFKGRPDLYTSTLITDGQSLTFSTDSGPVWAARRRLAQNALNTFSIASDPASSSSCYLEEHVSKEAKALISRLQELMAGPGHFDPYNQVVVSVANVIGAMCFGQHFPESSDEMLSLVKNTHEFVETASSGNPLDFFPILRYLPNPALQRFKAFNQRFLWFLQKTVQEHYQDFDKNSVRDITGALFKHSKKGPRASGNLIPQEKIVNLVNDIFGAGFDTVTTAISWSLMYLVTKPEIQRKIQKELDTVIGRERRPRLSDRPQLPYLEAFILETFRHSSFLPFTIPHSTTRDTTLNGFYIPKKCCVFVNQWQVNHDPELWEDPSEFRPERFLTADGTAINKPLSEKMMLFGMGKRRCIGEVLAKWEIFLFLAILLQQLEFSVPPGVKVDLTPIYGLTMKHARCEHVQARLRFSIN
Method: (§1) All chemicals and reagents including control compounds were purchased from commercial sources such as Sigma-Aldrich or Toronto Research Chemicals. The test article was tested for reversible inhibition of CYPs in human liver microsomes (HLM) (0.2 mg/mL protein) at a concentration range of 0–30 μM. Each condition was incubated in duplicate. The test article (0–30 μM), NADPH, and the CYP-selective probe substrate were incubated in a 96-well plate at 37 °C in 0.1 M potassium phosphate buffer, pH 7.4. The reactions were initiated by adding the HLMs. The total reaction volume was 100 μL.
(§2) After the incubation period (10 min for CYP1A2, 2B6, and 2C9; 15 min for CYP2C19; and 4 min for CYP2C8 and 2D6 to accommodate linear kinetic conditions) at 37 °C, the reactions were terminated by the addition of 100 μL of ice-cold acetonitrile-containing carbutamide as an IS, then centrifuged at 2500× g for 10 min at 2 °C. A 150 μL aliquot of supernatant for each CYP assay, except for CYP1A2, was then transferred to a new plate for analysis. For CYP1A2, 80 μL of supernatant was transferred to the plate and further diluted with 80 μL of water before analysis. All samples were analyzed with liquid chromatography with tandem mass spectrometry (LC–MS/MS).

CYP2D6 = target: T2, CYP2D6 (Homo sapiens, UniProt P10635); conditions: 30 µM compound, substrate dextromethorphan
T2 construct: from tissue; host or cells: pooled human liver microsomes (n = 200)
T2 sequence (P10635 whole entry): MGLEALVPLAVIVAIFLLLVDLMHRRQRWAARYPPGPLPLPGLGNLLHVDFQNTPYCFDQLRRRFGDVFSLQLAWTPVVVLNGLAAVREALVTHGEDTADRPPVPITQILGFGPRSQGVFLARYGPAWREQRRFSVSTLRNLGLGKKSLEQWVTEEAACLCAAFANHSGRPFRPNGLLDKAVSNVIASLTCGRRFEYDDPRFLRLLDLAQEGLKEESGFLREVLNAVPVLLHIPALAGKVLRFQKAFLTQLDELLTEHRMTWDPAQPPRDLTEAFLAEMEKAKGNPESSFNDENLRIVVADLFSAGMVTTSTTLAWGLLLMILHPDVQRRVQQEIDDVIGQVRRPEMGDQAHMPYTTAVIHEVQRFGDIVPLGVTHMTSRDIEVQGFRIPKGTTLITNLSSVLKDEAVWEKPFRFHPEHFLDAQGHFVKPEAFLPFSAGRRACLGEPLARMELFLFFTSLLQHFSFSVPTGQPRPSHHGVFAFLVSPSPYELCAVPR
Method: as §1, §2

CYP2C9 = target: T3, CYP2C9 (Homo sapiens, UniProt P11712); conditions: 30 µM compound, substrate diclofenac
T3 construct: from tissue; host or cells: pooled human liver microsomes (n = 200)
T3 sequence (P11712 whole entry): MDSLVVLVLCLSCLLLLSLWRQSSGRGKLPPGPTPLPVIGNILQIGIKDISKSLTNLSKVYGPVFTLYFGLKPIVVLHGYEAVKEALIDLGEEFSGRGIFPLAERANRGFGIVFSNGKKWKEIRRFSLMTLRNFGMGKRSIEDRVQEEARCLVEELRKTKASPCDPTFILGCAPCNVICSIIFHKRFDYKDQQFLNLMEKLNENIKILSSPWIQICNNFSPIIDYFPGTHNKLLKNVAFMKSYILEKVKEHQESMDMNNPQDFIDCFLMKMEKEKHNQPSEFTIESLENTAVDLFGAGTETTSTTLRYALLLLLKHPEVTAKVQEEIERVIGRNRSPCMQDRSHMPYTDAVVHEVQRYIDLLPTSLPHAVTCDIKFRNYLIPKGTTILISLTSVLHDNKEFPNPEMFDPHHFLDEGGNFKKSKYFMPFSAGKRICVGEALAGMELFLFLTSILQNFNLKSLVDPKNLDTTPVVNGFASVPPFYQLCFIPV
Method: as §1, §2

CYP2B6 = target: T4, CYP2B6 (Homo sapiens, UniProt P20813); conditions: 30 µM compound, substrate bupropion
T4 construct: from tissue; host or cells: pooled human liver microsomes (n = 200)
T4 sequence (P20813 1-491): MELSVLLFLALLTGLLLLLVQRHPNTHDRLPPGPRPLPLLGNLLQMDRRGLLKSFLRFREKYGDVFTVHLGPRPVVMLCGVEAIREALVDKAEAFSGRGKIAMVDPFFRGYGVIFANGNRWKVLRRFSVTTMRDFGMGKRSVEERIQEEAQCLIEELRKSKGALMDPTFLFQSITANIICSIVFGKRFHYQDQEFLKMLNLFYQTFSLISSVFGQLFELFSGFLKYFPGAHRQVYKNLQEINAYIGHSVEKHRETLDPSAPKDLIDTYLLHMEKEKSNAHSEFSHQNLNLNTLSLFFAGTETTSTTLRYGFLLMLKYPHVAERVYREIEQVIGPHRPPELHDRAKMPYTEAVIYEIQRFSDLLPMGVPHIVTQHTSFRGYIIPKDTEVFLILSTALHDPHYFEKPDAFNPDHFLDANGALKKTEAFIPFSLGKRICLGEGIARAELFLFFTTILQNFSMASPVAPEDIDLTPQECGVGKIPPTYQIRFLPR
Method: as §1, §2

O=C(CCCCCCCn1cc(CCCF)nn1)N1[C@@H]2[C@H](O)[C@@H](O)[C@@H](O)[C@@H](CO)[C@@H]21 [AGAL]
no significant loss of CYP activity: reversible inhibition of CYP1A2 activity (CYP1A2) | reversible inhibition of CYP2D6 activity (CYP2D6) | reversible inhibition of CYP2C9 activity (CYP2C9) | reversible inhibition of CYP2B6 activity (CYP2B6)
